Assay results from ChEMBL document CHEMBL1921760, “Design, synthesis and biological evaluation of 6-pyridylmethylaminopurines as CDK inhibitors” (Bioorg Med Chem, 2011).

How the values were obtained:
HCT-116 = test: Growth inhibition of human HCT116 cells after 96 hrs by sulforhodamine B assay; assay type: functional; details: HCT-116, 96 h
[1] = Metabolic stability in mouse liver microsomes assessed as compound metabolized at 10 uM after 30 mins by LC-MS analysis; assay type: ADME, Microsome; details: read-out: Activity
CH1 [2] = test: Growth inhibition of doxorubicin-resistant human CH1 cells after 96 hrs by sulforhodamine B assay; assay type: functional; details: CH1, 96 h
[3] = molecular target: Cyclin-dependent kinase 7/ cyclin H (Homo sapiens, UniProt P50613); test: Inhibition of CDK7/cyclin H; assay type: protein-complex assay
[4] = molecular target: Cyclin-dependent kinase 2/cyclin E1 (Homo sapiens, UniProt P24941); test: Inhibition of CDK2/cyclin E; assay type: protein-complex assay
[5] = molecular target: Cyclin-dependent kinase 1/cyclin B1 (Homo sapiens, UniProt P06493); test: Inhibition of CDK1/cyclin B; assay type: protein-complex assay
[6] = Inhibition of PKA
[7] = molecular target: Cyclin-dependent kinase 4/cyclin D1 (Homo sapiens, UniProt P11802); test: Inhibition of CDK4/cyclin D1; assay type: protein-complex assay
KM12 = test: Growth inhibition of human KM12 cells after 96 hrs by sulforhodamine B assay; assay type: functional; details: KM12, 96 h
A2780 [8] = test: Growth inhibition of cisplatin-resistant human A2780 cells after 96 hrs by sulforhodamine B assay; assay type: functional; details: A2780, 96 h
A2780 [9] = test: Growth inhibition of cisplatin-susceptible human A2780 cells after 96 hrs by sulforhodamine B assay; assay type: functional; details: A2780, 96 h
HT-29 = test: Growth inhibition of human HT-29 cells after 96 hrs by sulforhodamine B assay; assay type: functional; details: HT-29, 96 h
CH1 [10] = test: Growth inhibition of doxorubicin-susceptible human CH1 cells after 96 hrs by sulforhodamine B assay; assay type: functional; details: CH1, 96 h
[11] = molecular target: Mitogen-activated protein kinase 1 (Homo sapiens, UniProt P28482); test: Inhibition of ERK2
[12] = Volume of distribution in BALB/c mouse plasma at 50 mg/kg, iv after 24 hrs by LC-MS analysis; assay type: ADME, organism-based; parameters: dose 50 mg/kg, route intravenous
[13] = Half life in BALB/c mouse plasma at 50 mg/kg, iv by LC-MS analysis; assay type: ADME, organism-based; parameters: dose 50 mg/kg, route intravenous
[14] = AUC in BALB/c mouse plasma at 50 mg/kg, iv after 24 hrs by LC-MS analysis; assay type: ADME, organism-based; parameters: time < 24 hr, dose 50 mg/kg, route intravenous
[15] = Cmax in BALB/c mouse plasma at 50 mg/kg, iv after 24 hrs by LC-MS analysis; assay type: ADME, organism-based; parameters: dose 50 mg/kg, route intravenous
[16] = Clearance in BALB/c mouse plasma at 50 mg/kg, iv after 24 hrs by LC-MS analysis; assay type: ADME, organism-based; parameters: dose 50 mg/kg, route intravenous
[17] = Solubility of the compound in water; assay type: physicochemical
[18] = Oral bioavailability in BALB/c mouse at 50 mg/kg by LC-MS analysis; assay type: ADME, organism-based; details: in vivo

Sequence of Cyclin-dependent kinase 4/cyclin D1 (P11802 whole entry): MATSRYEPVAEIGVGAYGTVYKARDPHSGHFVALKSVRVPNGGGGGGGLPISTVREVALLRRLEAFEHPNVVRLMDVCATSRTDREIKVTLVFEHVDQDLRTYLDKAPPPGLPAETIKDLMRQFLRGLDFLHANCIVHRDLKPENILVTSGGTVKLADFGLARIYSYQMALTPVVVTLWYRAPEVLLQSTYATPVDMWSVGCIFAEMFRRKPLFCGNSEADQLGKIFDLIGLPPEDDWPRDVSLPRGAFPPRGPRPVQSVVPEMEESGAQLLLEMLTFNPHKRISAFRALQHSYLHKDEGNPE
Sequence of Cyclin-dependent kinase 4/cyclin D1 (P24385 whole entry, further chain): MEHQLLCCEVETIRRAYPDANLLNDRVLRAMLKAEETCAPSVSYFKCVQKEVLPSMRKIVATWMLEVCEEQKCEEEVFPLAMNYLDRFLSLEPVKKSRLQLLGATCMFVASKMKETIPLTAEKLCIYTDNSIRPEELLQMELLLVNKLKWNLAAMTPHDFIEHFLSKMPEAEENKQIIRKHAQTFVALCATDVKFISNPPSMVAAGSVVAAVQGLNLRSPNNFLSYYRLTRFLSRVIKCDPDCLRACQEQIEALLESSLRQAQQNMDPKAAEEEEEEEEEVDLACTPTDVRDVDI
Sequence of Mitogen-activated protein kinase 1 (P28482 whole entry): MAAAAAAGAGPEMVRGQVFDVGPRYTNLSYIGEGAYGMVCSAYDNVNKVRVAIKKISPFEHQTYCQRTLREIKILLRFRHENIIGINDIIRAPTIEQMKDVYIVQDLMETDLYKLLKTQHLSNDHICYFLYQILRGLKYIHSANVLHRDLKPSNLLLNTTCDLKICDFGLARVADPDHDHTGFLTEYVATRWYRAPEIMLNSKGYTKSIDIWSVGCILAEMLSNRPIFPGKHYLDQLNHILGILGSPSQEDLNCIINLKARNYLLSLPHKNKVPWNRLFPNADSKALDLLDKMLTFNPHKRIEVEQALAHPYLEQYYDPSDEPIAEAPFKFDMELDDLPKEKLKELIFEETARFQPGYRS
Sequence of Cyclin-dependent kinase 7/ cyclin H (P51946 whole entry): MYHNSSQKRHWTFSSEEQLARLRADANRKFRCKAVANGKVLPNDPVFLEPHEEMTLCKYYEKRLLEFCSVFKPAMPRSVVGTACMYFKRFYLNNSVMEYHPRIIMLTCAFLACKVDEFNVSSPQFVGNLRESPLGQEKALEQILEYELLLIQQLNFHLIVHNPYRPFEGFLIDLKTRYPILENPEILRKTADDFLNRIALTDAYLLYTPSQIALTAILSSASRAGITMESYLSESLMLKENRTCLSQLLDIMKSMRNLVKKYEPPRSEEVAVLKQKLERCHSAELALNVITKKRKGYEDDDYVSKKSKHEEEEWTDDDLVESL
Sequence of Cyclin-dependent kinase 7/ cyclin H (P50613 whole entry): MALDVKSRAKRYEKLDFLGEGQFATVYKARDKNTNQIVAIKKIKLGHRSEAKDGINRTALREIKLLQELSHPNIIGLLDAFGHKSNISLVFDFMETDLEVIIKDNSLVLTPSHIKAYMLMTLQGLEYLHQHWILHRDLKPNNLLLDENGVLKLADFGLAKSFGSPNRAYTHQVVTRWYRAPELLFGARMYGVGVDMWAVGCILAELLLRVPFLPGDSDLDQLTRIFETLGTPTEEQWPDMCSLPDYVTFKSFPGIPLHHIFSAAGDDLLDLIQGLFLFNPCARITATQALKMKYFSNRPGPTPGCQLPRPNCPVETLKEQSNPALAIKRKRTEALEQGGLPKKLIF
Sequence of Cyclin-dependent kinase 1/cyclin B1 (P06493 whole entry): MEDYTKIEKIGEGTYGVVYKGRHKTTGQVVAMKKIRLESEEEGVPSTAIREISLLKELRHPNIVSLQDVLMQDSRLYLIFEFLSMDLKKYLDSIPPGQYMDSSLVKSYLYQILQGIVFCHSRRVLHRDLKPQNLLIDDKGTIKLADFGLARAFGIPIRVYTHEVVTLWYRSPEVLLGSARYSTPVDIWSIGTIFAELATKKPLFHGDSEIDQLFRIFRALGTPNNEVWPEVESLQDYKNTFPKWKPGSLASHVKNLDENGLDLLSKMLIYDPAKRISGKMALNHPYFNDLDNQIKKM
Sequence of Cyclin-dependent kinase 1/cyclin B1 (P14635 whole entry, further chain): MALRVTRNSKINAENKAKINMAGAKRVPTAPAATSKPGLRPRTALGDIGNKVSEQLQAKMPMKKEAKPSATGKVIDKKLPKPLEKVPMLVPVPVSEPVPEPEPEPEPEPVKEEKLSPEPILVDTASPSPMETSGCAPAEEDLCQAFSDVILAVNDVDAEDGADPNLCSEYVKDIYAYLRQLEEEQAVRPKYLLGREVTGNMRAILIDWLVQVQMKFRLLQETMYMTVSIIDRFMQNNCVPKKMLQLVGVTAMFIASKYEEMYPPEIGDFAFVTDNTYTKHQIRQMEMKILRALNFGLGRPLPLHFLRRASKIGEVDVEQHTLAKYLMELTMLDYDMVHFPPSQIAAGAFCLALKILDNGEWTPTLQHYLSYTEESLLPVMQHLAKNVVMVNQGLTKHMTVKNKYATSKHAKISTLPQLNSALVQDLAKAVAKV

SMILES | GI50 (HCT-116) [µM] | metabolised at 0.5 h, 10 µM [1] [%] | GI50 (CH1 [2]) [µM] | IC50 [3] [nM] | IC50 [4] [nM] | IC50 [5] [µM] | IC50 [6] [µM] | IC50 [7] [µM] | GI50 (KM12) [µM] | GI50 (A2780 [8]) [µM] | GI50 (A2780 [9]) [µM] | GI50 (HT-29) [µM] | GI50 (CH1 [10]) [µM] | IC50 [11] [µM] | also measured
CC[C@H](Nc1nc(NCc2cccnc2)c2ncn(C(C)C)c2n1)C(O)C(C)C (mixture of isomers) | 22 | 62 | 20.5 | 3500 | 1100 | 22 | > 200 | 31 | 22 | 26.5 | 19 | 26 | 22 | – | –
CC[C@H](Nc1nc(NCc2ccccn2)c2ncn(C(C)C)c2n1)C(C)(C)O | 32 | 53 | 26 | 4300 | 310 | 24 | > 200 | 20 | 38 | 44 | 19 | > 50 | 42 | > 200 | –
CC[C@H](CO)Nc1nc(NCc2ccccc2)c2ncn(C(C)C)c2n1 [SELICICLIB] | 5.05 | 67 | 5.4 | – | – | – | > 50 | – | – | – | 4.45 | 6.4 | 3.25 | – | Vd [12]: 0.073 L; half-life [13]: 84 min; AUC at 24 h [14]: 53.4 µM·h; Cmax [15]: 93.7 µM; clearance [16]: 0.85 mL/min
CC[C@H](Nc1nc(NCc2cccnc2)c2ncn(C(C)C)c2n1)C(C)O (mixture of isomers) | 0.76 | 33 | 1.5 | – | – | 2.2 | > 200 | – | 1.15 | 1 | 0.78 | 1.1 | 0.92 | 20 | –
CC[C@@H](Nc1nc(NCc2cccnc2)c2ncn(C(C)C)c2n1)C(C)O (mixture of isomers) | 2.5 | 10 | 5.2 | – | – | 4.9 | > 200 | – | 4.7 | 4.4 | 3.1 | 4.7 | 4.5 | 23 | –
CC[C@H](Nc1nc(NCc2ccccn2)c2ncn(C(C)C)c2n1)C(C)O (mixture of isomers) | 10 | 67 | 15.5 | 2600 | 50 | 8.9 | > 200 | 18 | 23 | 17 | 10 | 20 | 21 | 77 | –
CC[C@H](Nc1nc(NCc2cccnc2)c2ncn(C(C)C)c2n1)C(O)C(C)(C)C (mixture of isomers) | 24 | 50 | 18.5 | 3500 | 390 | 21 | > 200 | 13 | 19 | 22 | 18 | 22 | 23 | – | –
CC[C@@H](Nc1nc(NCc2cccnc2)c2ncn(C(C)C)c2n1)C(O)C(C)C (mixture of isomers) | 25 | 36 | 25 | 2200 | 690 | 20 | > 200 | 21 | 31 | 37 | 23 | 32 | 30 | – | –
CC[C@H](Nc1nc(NCc2cccnc2)c2ncn(C(C)C)c2n1)[C@@H](C)O.O=C(O)C(F)(F)F | – | – | – | – | – | – | – | – | – | – | – | – | – | – | solubility ([17]; water, read-out: solubility): > 25 mg/mL
CC[C@@H](Nc1nc(NCc2ccccn2)c2ncn(C(C)C)c2n1)C(C)O (mixture of isomers) | 18 | 97 | 20 | 550 | 520 | 39 | > 200 | 48 | 37 | 27 | 15 | 42 | 20 | 73 | –
CCC(O)[C@@H](CC)Nc1nc(NCc2cccnc2)c2ncn(C(C)C)c2n1 (mixture of isomers) | 10 | 30 | 14.5 | 1100 | 220 | 12 | > 200 | 25 | 13.5 | 19 | 6.2 | 20 | 18 | – | –
CCC(O)[C@H](CC)Nc1nc(NCc2cccnc2)c2ncn(C(C)C)c2n1 (mixture of isomers) | 5.4 | 27 | 9.4 | 1500 | 110 | 13 | > 200 | 11 | 8.2 | 12.5 | 4.3 | 12.5 | 11 | – | –
CC[C@@H](Nc1nc(NCc2cccnc2)c2ncn(C(C)C)c2n1)[C@H](C)O | – | – | – | – | – | – | – | – | – | – | – | – | – | – | Vd [12]: 0.084 L; half-life [13]: 102 min; solubility ([17]; buffer): soluble; AUC at 24 h [14]: 158 µM·h; Cmax [15]: 377 µM; bioavailability [18]: 15%; clearance [16]: 0.283 mL/min
CC[C@@H](Nc1nc(NCc2cccnc2)c2ncn(C(C)C)c2n1)C(O)C(C)(C)C (mixture of isomers) | 20 | 46 | 23 | 1600 | 1000 | 23 | > 200 | 24 | 19 | 23 | 18 | 22 | 23 | – | –
CC[C@@H](Nc1nc(NCc2ccccc2)c2ncn(C(C)C)c2n1)C(C)O (mixture of isomers) | 5.4 | 91 | 4.6 | 390 | – | – | > 50 | 23 | 5.4 | 3.8 | 6.4 | 18 | 5 | 43 | –
